Laboratory results as given in patent US6794396B2, “Substituted pyridines useful for inhibiting cholesteryl ester transfer protein activity” (Pharmacia Corporation, priority 1998, dated 2004).
Several values for one entry are separate records, joined by “and”; a condition that tells them apart may be missing. Equal entries are not always repeated.

The compounds below were run against T1, CETP (Homo sapiens, UniProt P11597) (assay: CETP activity in vitro: transfer of [3H]CE from HDL donor to LDL acceptor particles). Conditions: 10 μm.
T1 construct: made in house; host or cells: CHO cells (serum-free conditioned medium)
T1 sequence (P11597 18-493): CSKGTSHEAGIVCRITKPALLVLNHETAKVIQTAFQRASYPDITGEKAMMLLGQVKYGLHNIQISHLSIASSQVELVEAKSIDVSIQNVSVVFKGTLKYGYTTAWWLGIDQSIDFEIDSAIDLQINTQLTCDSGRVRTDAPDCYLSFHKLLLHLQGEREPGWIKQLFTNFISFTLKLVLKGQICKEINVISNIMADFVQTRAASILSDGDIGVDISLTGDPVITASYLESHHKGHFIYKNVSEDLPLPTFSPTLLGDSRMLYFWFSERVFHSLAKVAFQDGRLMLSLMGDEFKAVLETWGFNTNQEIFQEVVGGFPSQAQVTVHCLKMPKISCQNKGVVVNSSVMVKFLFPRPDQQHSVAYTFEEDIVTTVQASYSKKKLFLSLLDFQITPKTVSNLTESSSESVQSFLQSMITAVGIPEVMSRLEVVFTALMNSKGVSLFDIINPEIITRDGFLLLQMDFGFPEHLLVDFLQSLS
Format: biochemical
Description: The ability of compounds to inhibit CETP were assessed using an in vitro assay that measured the rate of transfer of radiolabeled cholesteryl ester ([^3H]CE) from HDL donor particles to LDL acceptor particles. Details of the assay are provided by Glenn et al. (“Quantification of Cholesteryl Ester Transfer Protein (CETP): A) CETP Activity and B) Immunochemical Assay of CETP Protein,” Meth. Enzymol., Glenn and Melton (Meth. Enzymol., 263, 339-351 (1996), which is incorporated herein by reference). CETP was obtained from the serum-free conditioned medium of CHO cells transfected with a cDNA for CETP (Wang, S. et al. J. Biol Chem. 267, 17487-17490 (1992), which is incorporated herein by reference).
To measure CETP activity, [^3H]CE-labeled HDL, LDL, CETP and assay buffer (50 mM tris(hydroxymethyl)amino-methane, pH 7.4; 150 mM sodium chloride; 2 mM ethylenediamine-tetraacetic acid; 1% bovine serum albumin) were incubated in a volume of 200 μl, for 2 hours at 37° C. in 96 well plates. LDL was differentially precipitated by the addition of 50 μl of 1% (w/v) dextran sulfate/0.5 M magnesium chloride, mixed by vortex, and incubated at room temperature for 10 minutes The solution (200μl) was transferred to a filter plate (Millipore). After filtration, the radioactivity present in the precipitated LDL was measured by liquid scintillation counting.
This value was defined as the IC50.
For CCOC(C)Sc1c(C(F)(F)F)nc(C(F)F)c(C(=O)OC)c1CC(C)C (centres unmarked) [Compound 146, Methyl 2-(Difluoromethyl)-5-(1-ethoxyethylthio)-4-(2-methylpropyl)-6-(trifluoromethyl)-3-pyridinecarboxylate], the “% transfer at 10 μm” value was 67^D %.
For COC(=O)c1c(C(F)F)nc(C(F)(F)F)c(SC(C)OC)c1CC(C)C (centres unmarked) [Compound 147, Methyl 2-(Difluoromethyl)-4-(2-methylpropyl)-5-(1-methoxyethylthio)-6-(trifluoromethyl)-3-pyridinecarboxylate], the “% transfer at 10 μm” value was 15^D %.
In the case of COC(=O)c1c(C(F)F)nc(C(F)(F)F)c(SCCF)c1CC(C)C [Compound 148, Methyl 2-(Difluoromethyl)-5-(2-fluoroethylthio)4-(2-methylpropyl)-6-(trifluoromethyl)-3-pyridinecarboxylate], the “% transfer at 10 μm” value is reported as 32^D %.
With COC(=O)c1c(C(F)F)nc(C(F)(F)F)c(SC(C)=O)c1CC(C)C [Compound 149, Methyl 5-(Acetylthio)-2-(difluoromethyl)-4-(2-methylpropyl)-6-(trifluoromethyl)-3-pyridinecarboxylate] the “% transfer at 10 μm” value was 31^D %.
COC(=O)c1c(C(F)F)nc(C(F)(F)F)c(SC2CCCO2)c1CC(C)C (centres unmarked) [Compound 150, Methyl 2-(Difluoromethyl)-4-(2-methylpropyl)-5-[(tetrahydro-2-furyl)thio]-6-(trifluoromethyl)-3-pyridinecarboxylate] was tested, and the “% transfer at 10 μm” value was 95^D %.

Same assay, conditions: 50% inhibition of [3H]CE transfer from HDL to LDL, 2 hours at 37° C.; read-out: IC50(μm)
In the case of CCOC(=O)c1c(C(F)(F)F)nc(C(F)(F)F)c(C#N)c1OCC [Compound 64], the IC50 is reported as 60 µM.
COC(=O)c1c(C(F)F)nc(C(F)(F)F)c(C(=O)OC)c1Cc1ccnc(SC)n1 [Compound 67, Dimethyl 2-(Difluoromethyl)-4-{[(2-methylthio)pyrimidin-4-yl]methyl}-6-(trifluoromethyl)-3,5-pyridinedicarboxylate] gave an IC50 of 60 µM.
For COC(=O)c1c(C(F)F)nc(C(F)(F)F)c(C(N)=S)c1CC(C)C [Compound 77, Methyl 2-(Difluoromethyl)-4-(2-methylpropyl)-5-(aminothionocarbonyl)-6-(trifluoromethyl) -3-pyridinecarboxylate], the IC50 was 70 µM.
In the case of COC(=O)c1c(C(F)F)nc(C(F)(F)F)c(CSC(=O)N(C)C)c1CC(C)C [Compound 79], the IC50 is reported as 75 µM.
With COC(=O)c1c(C(F)F)nc(C(F)(F)F)c(CCl)c1CC(C)C [Compound 83, Methyl 5-Chloromethyl-2-(difluoromethyl)-4-(2-methylpropyl)-6-(trifluoromethyl)-3-pyridinecarboxylate] the IC50 was 80 µM.
CCOP(=O)(OCC)C(=O)c1c(C(F)(F)F)nc(C(F)F)c(C(=O)OC)c1NC(C)C [Compound 85, Methyl 5-[(Diethoxyphosphinyl)carbonyl]-2-(difluoromethyl)-4-(1-methylethylamino)-6-(trifluoromethyl)-3-pyridinecarboxylate] was tested, and the IC50 was 90 µM.
COC(=O)c1c(C(F)F)nc(C(F)(F)F)c(C(=O)Oc2cccc(OC)c2)c1CC(C)C [Compound 165, 3-Methyl 5-(3-Methoxyphenyl) 2-(Difluoromethyl)-4-(2-methylpropyl)-6-(trifluoromethyl)-3,5-pyridicarboxylate] was tested, and the IC50 was > 100 µM and 70 µM.
For COC(=O)c1c(C(F)F)nc(C(F)(F)F)c(C(=O)Oc2ccc(C(C)(C)C)cc2C(C)(C)C)c1CC(C)C [Compound 168, 3-Methyl 5-(2,4-Di-t-butylphenyl) 2-(Difluoromethyl)-4-(2-methylpropyl)-6-(trifluoromethyl)-3,5-pyridicarboxylate], the IC50 was 60 µM.
For COC(=O)c1c(C(F)F)nc(C(F)(F)F)c(C(=O)Oc2ccc(C(C)C)cc2Cc2ccc(F)cc2)c1CC(C)C [Compound 170, 3-Methyl 5-[2-(4-Fluorobenzyl)-4-isopropylphenyl]2-(Difluoromethyl)-4-(2-methylpropyl)-6-(trifluoromethyl)-3,5-pyridicarboxylate], the IC50 was 40 µM.

Same assay, conditions: 100 μm
COC(=O)c1c(C(F)F)nc(C(F)(F)F)c(SCC(N)=O)c1CC(C)C [Compound 145] was tested, and the “% Transfer @ 100 μm” value was 64%.

Same assay, conditions: 2 h, read-out: % Transfer @ 100 μm
COC(=O)c1c(C(F)F)nc(C(F)(F)F)c([S+]([O-])CCCl)c1CC(C)C (centres unmarked) [Compound 111, Methyl 5-(Chloroethylsulfinyl)-2-(difluoromethyl)-4-(2-methylpropyl)-6-(trifluoromethyl)-3-pyridinecarboxylate] showed a remaining activity at 100 µM of 78%.

Same assay, conditions: 2 h; read-out: % Transfer @ 100 μm
In the case of CCOC(=O)c1c(C(F)(F)F)ncc(C(=O)OC(C)C)c1O [Compound 101, 3-Ethyl 5-Isopropyl 4-hydroxy-2-(trifluoromethyl)-3,5-pyridinedicarboxylate], the remaining activity at 100 µM is reported as 71%.
Work on COC(=O)c1c(C(F)F)nc(C(F)(F)F)c(C2CC(C)N(O)C2)c1CC1CC1 (centres unmarked) [Compound 107, Methyl 4-(Cyclopropylmethyl)-2-(difluoromethyl)-5-(1-hydroxy-5-methyl-3-pyrrolidinyl)-6-(trifluoromethyl)-3-pyridinecarboxylate] yielded a remaining activity at 100 µM of 75%.
For CCOC(=O)c1cnc(C(F)(F)F)c(Oc2ccccc2)c1O [Compound 109, Ethyl 4-Hydroxy-5-phenoxy-6-(trifluoromethyl)-3-pyridinecarboxylate], the remaining activity at 100 µM was 76%.
For COC(=O)c1c(C(F)F)nc(C(F)(F)F)c(-c2ncco2)c1CC(C)C [Compound 110, Methyl 2-(difluoromethyl)-4-(2-methylpropyl)-5-(2-oxazolyl)-6-(trifluoromethyl)-3-pyridinecarboxylate], the remaining activity at 100 µM was 76%.
COC(=O)c1c(C(F)F)nc(C(F)(F)F)c(C(=N)SC)c1CC1CC1 [Compound 112, Methyl 4-(Cyclopropylmethyl)-2-(difluoromethyl)-5-[imino(methylthio)methyl]-6-(trifluoromethyl)-3-pyridinecarboxylate] showed a remaining activity at 100 µM of 78%.
CCOC(=O)c1cnc(C(F)(F)F)c(OCC)c1O [Compound 114, Ethyl 5-Ethoxy-4-Hydroxy-6-(trifluoromethyl)-3-pyridinecarboxylate] showed a remaining activity at 100 µM of 81%.
In the case of COC(=O)c1c(C(F)F)nc(C(F)(F)F)c(NC(=O)c2sc(Cl)nc2C(F)(F)F)c1CC(C)C [Compound 117, Methyl {-[2-Chloro-4-(trifluoromethyl)-5-thiazolyl]carbonylamino}-2-(difluoromethyl)-4-(2-methylpropyl)-6-(trifluoromethyl)-3-pyridinecarboxylate], the remaining activity at 100 µM is reported as 83%.
Compound COC(=O)c1c(C(F)F)nc(C(F)(F)F)c(C(N)=S)c1C1CCC1 [Compound 119, Methyl 5-(aminothioxomethyl)-4-(cyclobutyl)-2-(difluoromethyl)-6-(trifluoromethyl)-3-pyridinecarboxylate] has a remaining activity at 100 µM of 84%.
Compound Cc1c(C(F)(F)F)ncc(C(=O)O)c1Sc1ccc(C(C)C)cc1 [Compound 126, 4-(4-Isopropylphenylthio)-5-methyl-6-(trifluoromethyl)-3-pyridinecarboxylic Acid] has a remaining activity at 100 µM of 90%.
In the case of COC(=O)c1c(OC(C)C)ccnc1C(F)(F)F [Compound 127, Methyl 4-(1-Methylethoxy)-2-(trifluoromethyl)-3-pyridinecarboxylate], the remaining activity at 100 µM is reported as 90%.

Same assay, conditions: IC50(μm), 50% inhibition of [3H]CE transfer from HDL to LDL, 2 hours at 37° C.
Work on COC(=O)c1c(C(F)F)nc(C(F)(F)F)c(C2SCCS2)c1CC(C)C [Compound 61] yielded an IC50 of 60 µM.
CCCc1c(C(=O)OC)c(C(F)F)nc(C(F)(F)F)c1C(=O)SCC [Compound 62] was tested, and the IC50 was 60 µM.
With CCSc1c(C(F)(F)F)nc(C(F)F)c(C(=O)OC)c1C1CCC1 [Compound 66] the IC50 was 60 µM.
Work on COC(=O)c1c(C(F)F)nc(C(F)(F)F)c(C(=O)SC)c1CC(C)C [Compound 69] yielded an IC50 of 65 µM.
Compound COC(=O)c1c(C(F)F)nc(C(F)(F)F)c(-n2cccc2)c1C1CCC1 [Compound 70, Methyl 2-(Difluoromethyl)-4-cyclobutyl-5-(1-pyrrolyl)-6-(trifluoromethyl)-3-pyridinecarboxylate] has an IC50 of 65 µM.
For COC(=O)c1c(C(F)F)nc(C(F)(F)F)c(C(=O)Sc2ccccc2C(C)C)c1CC(C)C [Compound 157, Methyl 2-(Difluoromethyl)-4-(2-methylpropyl)-5-{[(2-isopropylphenyl)thio]carbonyl}-6-(trifluoromethyl)-3-pyridinecarboxylate], the IC50 was 60 µM.
